Results reported in patent publication US20190202774A1, “BIARYL COMPOUNDS AS ANTIMICROBIAL AND CHEMOTHERAPEUTIC AGENTS” (priority 2015, published 2019).
In brackets after ≈: the same amount, converted by molar mass. Entries after “also recorded” stand apart in the source; their conditions may differ. Where two headings read alike, the source gives them in different places.

Assays:
erythrocytes = conditions: 50 μg/mL, two hour incubation; cited from earlier work
[1] = tested on: human lung airway epithelial cells (16HBE)
Protocol: (§1) Finally, toxicity of biaryl compounds was tested against human lung airway epithelial cells (16HBE), human dermal fibroblasts, and J774.A1 murine macrophages using an ALAMARBLUE® Cell Viability Assay. Biaryl compounds, C58, acetylated C58 (C58-2), C59, C59-2, C59Na, and C59Li were incubated with cells for 24 hours and an ALAMARBLUE® Cell Viability Assay was performed to determine cell viability relative to untreated controls (FIGS. 13A-13C). Cell viability curves were analyzed using non-linear curve fit to yield the inhibitory concentration at median cell survival (LD50) for all cell lines (Table 3).
(§2) Next, the toxicity of lead candidates was tested against human lung airway epithelial cells (16HBE) and human dermal fibroblasts (HDF) using an alamarBlue® Cell Viability Assay.

[2] = tested on: human dermal fibroblasts (HDF)
Protocol: as §1, §2

[3] = tested on: erythrocytes from sheep blood; assay: Hemolytic activity
Protocol: Toxicity of biaryl compounds was tested against erythrocytes as well as eukaryotic epithelial, dermal, and macrophage cell lines in vitro.
Toxicity of lead antimicrobial candidates was tested against erythrocytes, as well as eukaryotic epithelial and dermal cell lines in vitro.

MRSA strain USA 300 = assay: Growth curves (OD650, 18-h), MRSA USA 300; assay type: cell-based, Staphylococcus aureus; conditions: stationary phase USA 300, 18-h, compared with non-treated control
Protocol: The rate of bacterial growth in presence of antimicrobial candidates, C58, C59, C59Na, or 4-76, was performed using stationary phase MRSA, USA 300 and SA LL06, or S. epidermidis, M0881, and compared with SoC antimicrobial, vancomycin. In addition, these growth rates were compared with the kill kinetics described earlier (FIGS. 4 & 5). […] A reduction in bacterial growth rate, represented by a lower absorbance at OD650, can be observed with C59 and C59Na at concentrations as low as 0.125×MIC compared with non-treated control. […] However, in the kill kinetics experiments, vancomycin fails to eradicate stationary phase MRSA at concentrations up to 2×MIC. This anomaly can be explained by the different experimental conditions between the kill kinetics and growth curve experiments; bacterial samples are grown with constant shaking on an orbital shaker for a kill kinetics experiment but not for a growth curve experiment.
Finally, the antimicrobial efficacy of enantiomers of compound 4-76 were evaluated against log-phase MRSA strain USA 300, as described earlier.

[4] = tested on: R. equi strains 701+, 701−, 703, and 5331; assay: MIC/MBC broth microdilution against R. equi; assay type: cell-based, Rhodococcus equi
[5] = tested on: MRSA strains USA300, 0606, 0608, 0634, 0641, and 0646; assay: MIC/MBC against six MRSA strains (variants of C58/C59, pH, DMSO); assay type: cell-based, Staphylococcus aureus
Protocol: Six MRSA strains, USA300, 0606, 0608, 0634, 0641, and 0646 were chosen based on their activity against biaryl compounds and vancomycin to determine structure-activity relationship of biaryl compounds. The effect of phenolic group on the activity of biaryl compounds was tested by modifying C59. First, the phenolic group was protected by acetylation to yield an acetylated C59 (C59-2) (FIG. 7B). Additional variants of C59, in the form of sodium and lithium salts were synthesized by incubation with sodium hydroxide and lithium hydroxide (FIGS. 7C and 7D). Antimicrobial activity of these deprotonated, water-soluble sodium (C59Na) and lithium (C59Li) salts, and acetylated derivative of C59 was tested against 6 MRSA strains and compared to the parent compound, C59 (FIGS. 8A-8D). Results from this comparative experiment indicate the contribution of phenolic group/phenoxide ion to the antimicrobial activity.
Further investigation into activity of these compounds under acidic pH conditions also points towards the role of phenolic group. An effective antimicrobial should be active under a wide range of pH conditions, including the physiological pH of 7.4. Localized pH in an infection is often lower than the physiological pH, and may be as low as 5.5 (Radovic-Moreno et al., 2012). Additionally, pH varies among organs (Radovic-Moreno et al., 2012). For example, pH in the bladder or on the skin is found to be between 4.5 and 8.0, or 4.0 and 5.5, respectively (Radovic-Moreno et al., 2012). […] The activity of all biaryl compounds is enhanced by at least four- to eight-fold with reduction in pH from 7.4 to 5.5.
Water soluble sodium and lithium salts of C59 (C59Na and C59Li) and their antimicrobial activity against six MRSA strains are reported above. A sodium salt of C58 (C58Na) was prepared and evaluated efficacy of this compound against these six MRSA strains. […] The poor activity of C58Na may be a result of poor stability of C58Na compared with C59Na and C59Li.

[6] = tested on: E. faecalis strains 49532 and 51575; assay: MIC/MBC broth microdilution against E. faecalis; assay type: cell-based, Enterococcus faecalis
H2122 = assay: Lung cancer cell survival, H2122; assay type: cell-based; conditions: 72 hour incubation, non-linear curve fit
Protocol: (§3) The IC50 values generated using a non-linear curve fit with lung cancer cell lines, A549, H460, H2122, and H2073 are listed in Table 10. Experiments were performed using C58, C58-2, C59, C59-2, C119, and acetylated C119 (C119-2). […] Additionally, these concentrations are clinically achievable for treatment of lung cancer and a detailed structure activity relationship experiments needs to be performed to identify promising anticancer candidates.

[7] = tested on: eukaryotic cell lines tested; assay: ALAMARBLUE Cell Viability Assay, LD50 quoted in text (cell line not given); conditions: 24 hours; cell line not named in the sentence (Table 3 not given)
Protocol: as §1

A549 = assay: Lung cancer cell survival, A549; assay type: cell-based; conditions: 72 hour incubation, non-linear curve fit
Protocol: as §3

H460 = assay: Lung cancer cell survival, H460; assay type: cell-based; conditions: 72 hour incubation, non-linear curve fit
Protocol: as §3

38 MRSA strains [8] = conditions: MH broth
MRSA SA LL06 = assay: Growth curves (OD650, 18-h), MRSA SA LL06; assay type: cell-based, Staphylococcus aureus; conditions: SA LL06, 18-h
[9] = tested on: seven S. pyogenes strains; assay: MIC/MBC against panel of S. pyogenes strains; assay type: cell-based, Streptococcus pyogenes; conditions: range over seven S. pyogenes strains
Protocol: The activity of compounds against Gram-positive pathogens, S. pyogenes and S. pneumoniae, identified through the preliminary screen (FIG. 15) was evaluated against a panel of these pathogens.

MRSA strain USA300 [10] = assay: Kill kinetics with planktonic log-phase MRSA; assay type: cell-based, Staphylococcus aureus; conditions: log-phase USA300, 24 hours
H2073 = assay: Lung cancer cell survival, H2073; assay type: cell-based; conditions: 72 hour incubation, non-linear curve fit
Protocol: as §3

[11] = tested on: 21 S. epidermidis strains; assay: MIC90/MBC90 broth microdilution against 21 S. epidermidis strains; assay type: cell-based, Staphylococcus epidermidis
Description: We are currently in the process of evaluating the MICs and MBCs for 5-32.

[12] = tested on: MRSA strains USA300 and SALL06; assay: Kill kinetics with stationary-phase MRSA; assay type: cell-based, Staphylococcus aureus; conditions: stationary-phase USA300 and SALL06, up to 24 hours
MRSA strain USA300 [13] = assay: DiSC3(5) membrane permeabilization; assay type: cell-based, Staphylococcus aureus; conditions: 0.1 and 0.5 μg/mL
Protocol: Biaryl compounds and their analogues have been reported to be membrane active agents (Isnansetyo and Kamei, 2003 and Kamei et al., 2003). An experiment was performed to verify the membrane permeabilization activity of biaryl compound. C58 using a fluorescent dye, 3,3′-Dipropylthiacarbocyanine iodide (DiSC3(5)). The fluorescence signal from DiSC3(5) is in a quenched state when it interacts with the hydrophobic region of the cell membrane. Upon disruption of the membrane, DiSC3(5) is released and regains its fluorescent activity, which is measured as a fluorescence signal (RFU).

38 MRSA strains [14] = assay: microbe, parasite or virus in culture; conditions: Staphylococcus aureus
[15] = tested on: MRSA strains SAD05 and 0632 in a biofilm; assay: MBEC High-throughput biofilm assay; assay type: cell-based, Staphylococcus aureus; conditions: six-hour incubation, SAD05 and 0632
[16] = 24-h incubation, non-linear curve fit
[17] = Rhodococcus (subgen. Prescottella) equi, strain 701+
[18] = Rhodococcus (subgen. Prescottella) equi, strain 701−
[19] = Rhodococcus (subgen. Prescottella) equi, strain 703
[20] = Rhodococcus (subgen. Prescottella) equi, strain 5331

Compound | 16HBE LD50 [1, 16] [µg/mL] | onset of hemolysis ([3]; sheep, 1 h) [µg/mL] | lowest concentration with reduction in bacterial growth rate (lower OD650) (MRSA strain USA 300) [×MIC] | MBC ([4]; strain 701+) [µg/mL] | MIC ([4]; strain 701+) [µg/mL] | MBC ([4]; strain 701−) [µg/mL] | MIC ([4]; strain 701−) [µg/mL] | MBC ([4]; strain 703) [µg/mL] | MIC ([4]; strain 703) [µg/mL] | MBC ([4]; strain 5331) [µg/mL] | MIC ([4]; strain 5331) [µg/mL] | MBC ([6]; strain 49532) [µg/mL] | MIC ([6]; strain 49532) [µg/mL] | MBC ([6]; strain 51575) [µg/mL] | MIC ([6]; strain 51575) [µg/mL] | H2122 LD50 (H2122) [µM] | LD50 (inhibitory concentration at median cell survival) [7] [µg/mL] | A549 LD50 (A549) [µM] | H460 LD50 (H460) [µM] | lowest concentration with reduction in bacterial growth rate (MRSA SA LL06) [×MIC] | other results
Gramicidin D [reference compound] | 20.5 |  |  |  |  |  |  |  |  |  |  |  |  |  |  |  |  |  |  |  | hemolysis (erythrocytes): 60%; Fibroblasts LD50 [2, 16]: 3.9 µg/mL; concentration resulting in 100% hemolysis ([3]; 1-h incubation): 48000 ng/mL; onset of hemolysis ([3]; 1-h incubation): 2 µg/mL
C[C@@H]1[C@H](O)[C@@H](C)/C=C/C=C/C=C/C=C/C=C/C=C/C=C/[C@H](O[C@@H]2O[C@H](C)[C@@H](O)[C@H](N)[C@@H]2O)C[C@@H]2O[C@](O)(C[C@@H](O)C[C@@H](O)[C@H](O)CC[C@@H](O)C[C@@H](O)CC(=O)O[C@H]1C)C[C@H](O)[C@H]2C(=O)O [Amphotericin B, reference compound] |  | 2 |  |  |  |  |  |  |  |  |  |  |  |  |  |  |  |  |  |  | 16HBE LD50 ([1]; human, 24 h): 12.6 µg/mL; Fibroblasts LD50 ([2]; human, 24 h): 2.2 µg/mL; concentration resulting in 100% hemolysis ([3]; sheep, 1 h): 8000 ng/mL
[Na+].[Na+].[O-]c1c(Cl)cc(Cl)cc1-c1cc(Cl)cc(Cl)c1[O-] [C59Na] | 30 |  | 0.125 | 16 | 2 | 32 | 8 | 8 | 1 | 8 | 2 | 24 | 12 | 24 | 12 |  |  |  |  |  | activity in the absence of DMSO versus with 2.5% DMSO [5]: at least comparable activity; antimicrobial activity (MIC and MBC) compared to the parent compound [5]: enhanced activity; also recorded: superior activity over C59
Oc1c(Cl)cc(Cl)cc1-c1cc(Cl)cc(Cl)c1O [C59] |  |  | 0.125 | 4 (≈ 12.3 µM) | 2 (≈ 6.17 µM) | 16 (≈ 49.4 µM) | 2 (≈ 6.17 µM) | 8 (≈ 24.7 µM) | 2 (≈ 6.17 µM) | 4 (≈ 12.3 µM) | 2 (≈ 6.17 µM) | 16 (≈ 49.4 µM) | 8 (≈ 24.7 µM) | 16 (≈ 49.4 µM) | 8 (≈ 24.7 µM) | 91 | 40 | 123 | 37 | 0.125 | MBC90 (38 MRSA strains [8]): 6 µg/mL (≈ 18.5 µM); MIC90 (38 MRSA strains [8]): 2 µg/mL (≈ 6.17 µM); MBCs [9]: 12 to 24 µg/mL; MICs [9]: 2 to 12 µg/mL; concentration of complete killing (MRSA strain USA300 [10]): 8 µg/mL; dose response of bacterial eradication (MRSA strain USA300 [10]): dose-dependent manner; lowest concentration with reduction in bacterial burden (MRSA strain USA300 [10]; compared with untreated bacteria): 0.5 µg/mL; H2073 LD50 (H2073): 43 µM; MBC90 ([11]; 21 S. epidermidis strains): 12 µg/mL (≈ 37 µM); MIC90 ([11]; 21 S. epidermidis strains): 4 µg/mL (≈ 12.3 µM); eradication of stationary-phase bacteria [12]: continues to eradicate bacteria
COc1c(C)cc(O)c(-c2c(O)ccc3ccccc23)c1C |  |  |  |  |  |  |  |  |  |  |  |  |  |  |  |  |  |  |  |  | melting point: 190 to 191 °C
Oc1c(Br)cc(Br)cc1-c1cc(Br)cc(Br)c1O [C58, bromophene] |  | > 64 |  |  |  |  |  |  |  |  |  |  |  | 12 (≈ 23.9 µM) | 6 (≈ 12 µM) | 98 | 60 | 120 | 42 | 0.125 | membrane disruption (DiSC3(5) fluorescence) (MRSA strain USA300 [13]): positive membrane disruption; MBC [4, 17]: 4 µg/mL (≈ 7.97 µM); MIC [4, 17]: 1 µg/mL (≈ 1.99 µM); MBC [4, 18]: 8 µg/mL (≈ 15.9 µM); MIC [4, 18]: 1 µg/mL (≈ 1.99 µM); MBC [4, 19]: 8 µg/mL (≈ 15.9 µM); MIC [4, 19]: 0.5 µg/mL (≈ 0.996 µM); MBC [4, 20]: 4 µg/mL (≈ 7.97 µM); MIC [4, 20]: 1 µg/mL (≈ 1.99 µM); MIC90 (38 MRSA strains [14]): 2 µg/mL (≈ 3.99 µM); MBC (38 MRSA strains [14]; read-out: MBC90): 4 µg/mL (≈ 7.97 µM); concentration that completely eradicates bacteria in a biofilm [15]: 16 µg/mL; H2073 LD50 (H2073): 32 µM; MIC90 ([11]; Staphylococcus epidermidis): 2 µg/mL (≈ 3.99 µM); MBC ([11]; Staphylococcus epidermidis, read-out: MBC90): 8 µg/mL (≈ 15.9 µM); MBC ([6]; Enterococcus faecalis): 12 µg/mL (≈ 23.9 µM); MIC ([6]; Enterococcus faecalis): 6 µg/mL (≈ 12 µM); onset of hemolysis ([3]; sheep, 18 h): 16 to 20 µg/mL
